Molecular target: T1, P2X4 (Homo sapiens, UniProt Q99571)
T1 sequence (Q99571 1-388): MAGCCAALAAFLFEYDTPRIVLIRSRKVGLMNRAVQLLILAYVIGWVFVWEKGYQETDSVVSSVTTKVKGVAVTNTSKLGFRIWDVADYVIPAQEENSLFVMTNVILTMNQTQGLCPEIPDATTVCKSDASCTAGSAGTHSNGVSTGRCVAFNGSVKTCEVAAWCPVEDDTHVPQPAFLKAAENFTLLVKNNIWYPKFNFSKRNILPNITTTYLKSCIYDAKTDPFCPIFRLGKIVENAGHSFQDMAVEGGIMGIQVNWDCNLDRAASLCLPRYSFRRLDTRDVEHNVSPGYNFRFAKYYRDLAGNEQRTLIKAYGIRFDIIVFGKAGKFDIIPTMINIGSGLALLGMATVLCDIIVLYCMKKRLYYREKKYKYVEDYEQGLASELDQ
Assay: Assay B: human P2X4 receptor cell line, mitochondrial photina luminescence (agonist Bz-ATP at EC50)
Format: cell-based
Set-up: host or cells: HEK 293 (recombinant, constitutively expressing; with mitochondrial photina in Assay B)
Conditions: HEK human P2X4 cell line, photina luminescence, agonist Bz-ATP at EC50, average; for Emax: read-out: human P2X4 Assay B avg Efficacy
Description: The identification of agonists and antagonists of the P2X4 receptor from humans and […] also the quantification of the activity of the compounds of the invention was performed by use of recombinant cell lines. […] The test cell lines constitutively express the mouse or human P2X4 receptors. Stimulation of the receptors with an agonist leads to a conformational change of P2X4 and influx of extracellular calcium ions through the ion channel. The cytoplasmatic calcium transient is detected via the calcium sensitive dye Fluo8 for the mouse P2×4 cell line or in case of the human P2×4 cell line a stably expressed calcium-sensitive photoprotein, mitochondrial photina, which, after reconstitution with the cofactor coelenterazine, emits light in dependence of calcium binding [Bovolenta S, Foti M, Lohmer S, Corazza S., J Biomol Screen. […] The strength of Fluo8 fluorescence signal or photina luminescence signal corresponds to the level of receptor activation. An inhibitor would decrease the signal depending on its potency and concentration.
The resulting light signal is measured immediately in the luminometer.

Row | SMILES | IC50 [nM] | human P2X4 Assay B avg Efficacy [%] | Emax [%]
1 | CC(Oc1ccc(NC(=O)Cc2ccccc2Cl)cc1S(N)(=O)=O)c1ccccc1 (single isomer, unassigned) [Example 148B, 2-(2-Chlorophenyl)-N-[4-(1-phenylethoxy)-3-sulfamoylphenyl]acetamide] | 519 | 64 | –
2 | NS(=O)(=O)c1cc(NC(=O)Cc2ccccc2Cl)ccc1Oc1ccnc(Cl)c1 [Example 003, 2-(2-Chlorophenyl)-N-{4-[(2-chloropyridin-4-yl)oxy]-3-sulfamoylphenyl}acetamide] | 6340 | – | 50
3 | N#Cc1ccc(Oc2ccc(NC(=O)Cc3ccccc3Cl)cc2S(N)(=O)=O)cc1C#N [Example 025, 2-(2-Chlorophenyl)-N-[4-(3,4-dicyanophenoxy)-3-sulfamoylphenyl]acetamide] | > 16000 | – | 50
4 | NS(=O)(=O)c1cc(NC(=O)Cc2ccccc2Cl)ccc1Oc1ncccc1Cl [Example 038, 2-(2-chlorophenyl)-N-{4-[(3-chloropyridin-2-yl)oxy]-3-sulfamoylphenyl}acetamide] | 777 | – | 74
5 | NS(=O)(=O)c1cc(NC(=O)Cc2ccccc2Cl)ccc1Oc1ccc(N2CCOCC2)cc1 [Example 044, 2-(2-Chlorophenyl)-N-{4-[4-(morpholin-4-yl)phenoxy]-3-sulfamoylphenyl}acetamide] | 2630 | – | 69
6 | Cc1ccc(C#N)cc1Oc1ccc(NC(=O)Cc2ccccc2Cl)cc1S(N)(=O)=O [Example 045, 2-(2-Chlorophenyl)-N-[4-(5-cyano-2-methylphenoxy)-3-sulfamoylphenyl]acetamide] | 176 | – | 71
7 | NS(=O)(=O)c1cc(NC(=O)Cc2ccccc2Cl)ccc1Oc1cccc(N2CCCCC2)c1 [Example 049, 2-(2-Chlorophenyl)-N-{4-[3-(piperidin-1-yl)phenoxy]-3-sulfamoylphenyl}acetamide] | 773 | – | 92
8 | N#CC1(COc2ccc(NC(=O)Cc3ccccc3Cl)cc2S(N)(=O)=O)CCOCC1 [Example 055, 2-(2-Chlorophenyl)-N-{4-[(4-cyanotetrahydro-2H-pyran-4-yl)methoxy]-3-sulfamoylphenyl}acetamide] | 1160 | – | 71
9 | NS(=O)(=O)c1cc(NC(=O)Cc2ccccc2Cl)ccc1Oc1cnc(C(F)(F)F)nc1 [Example 056, 2-(2-Chlorophenyl)-N-(3-sulfamoyl-4-{[2-(trifluoromethyl)pyrimidin-5-yl]oxy}phenyl)acetamide] | > 50000 | – | 15
10 | CC(C)c1ncc(Oc2ccc(NC(=O)Cc3ccccc3Cl)cc2S(N)(=O)=O)cn1 [Example 057, 2-(2-Chlorophenyl)-N-{4-[(2-isopropylpyrimidin-5-yl)oxy]-3-sulfamoylphenyl}acetamide] | 1590 | – | 65
11 | NS(=O)(=O)c1cc(NC(=O)Cc2ccccc2Cl)ccc1Oc1ccc(Br)cc1 [Example 060, N-[4-(4-Bromophenoxy)-3-sulfamoylphenyl]-2-(2-chlorophenyl)acetamide] | – | – | 34
12 | N#Cc1cc(F)cc(Oc2ccc(NC(=O)Cc3ccccc3Cl)cc2S(N)(=O)=O)c1 [Example 069, 2-(2-chlorophenyl)-N-[4-(3-cyano-5-fluorophenoxy)-3-sulfamoylphenyl]acetamide] | 2680 | – | 71
13 | COc1ccccc1Oc1ccc(NC(=O)Cc2ccc(C(F)(F)F)cc2)cc1S(N)(=O)=O [Example 071, N-[4-(2-Methoxyphenoxy)-3-sulfamoylphenyl]-2-[4-(trifluoromethyl)phenyl]acetamide] | 2090 | – | 73
14 | NS(=O)(=O)c1cc(NC(=O)Cc2ccc(C(F)(F)F)cc2)ccc1Oc1ccccc1OC(F)(F)F [Example 072, N-{3-Sulfamoyl-4-[2-(trifluoromethoxy)phenoxy]phenyl}-2-[4-(trifluoromethyl)phenyl]acetamide] | 2960 | – | 63
15 | NS(=O)(=O)c1cc(NC(=O)Cc2ccccc2)ccc1Oc1ccccc1OC(F)(F)F [Example 074, 2-Phenyl-N-{3-sulfamoyl-4-[2-(trifluoromethoxy)phenoxy]phenyl}acetamide] | 609 | – | 52

The remaining compounds from weak to strong by IC50, led by results:

Row | IC50 [nM] | human P2X4 Assay B avg Efficacy [%] | Emax [%] | SMILES
16 | 11600 | – | 73 | N#Cc1ncc(Cl)cc1Oc1ccc(NC(=O)Cc2ccccc2Cl)cc1S(N)(=O)=O [Example 048, N-{4-[(5-Chloro-2-cyanopyridin-3-yl)oxy]-3-sulfamoylphenyl}-2-(2-chlorophenyl)acetamide]
17 | 7720 | – | 61 | N#Cc1cc(Cl)cc(Oc2ccc(NC(=O)Cc3ccccc3Cl)cc2S(N)(=O)=O)c1 [Example 001, N-[4-(3-Chloro-5-cyanophenoxy)-3-sulfamoylphenyl]-2-(2-chlorophenyl)acetamide]
18 | 6750 | – | 75 | N#Cc1cc(C#N)cc(Oc2ccc(NC(=O)Cc3ccccc3Cl)cc2S(N)(=O)=O)c1 [Example 033, 2-(2-Chlorophenyl)-N-[4-(3,5-dicyanophenoxy)-3-sulfamoylphenyl]acetamide]
19 | 5080 | – | 99 | N#Cc1ccc(Oc2ccc(NC(=O)Cc3ccccc3Cl)cc2S(N)(=O)=O)cc1 [Example 030, 2-(2-Chlorophenyl)-N-[(4-cyanophenoxy)-3-sulfamoylphenyl]acetamide]
20 | 3860 | – | 60 | NS(=O)(=O)c1cc(NC(=O)Cc2ccccc2Cl)ccc1Oc1cccc(-c2nnn[nH]2)c1 [Example 021, 2-(2-Chlorophenyl)-N-{3-sulfamoyl-4-[3-(1H-tetrazol-5-yl)phenoxy]phenyl}acetamide]
21 | 3570 | – | 60 | NS(=O)(=O)c1cc(NC(=O)Cc2ccccc2Cl)ccc1Oc1cc(Cl)cnc1Cl [Example 035, 2-(2-Chlorophenyl)-N-{4-[(2,5-dichloropyridin-3-yl)oxy]-3-sulfamoylphenyl}acetamide]
22 | 3380 | – | 72 | CN1CCN=C1c1cccc(Oc2ccc(NC(=O)Cc3ccccc3Cl)cc2S(N)(=O)=O)c1 [Example 041, 2-(2-Chlorophenyl)-N-{4-[3-(1-methyl-4,5-dihydro-1H-imidazol-2-yl)phenoxy]-3-sulfamoylphenyl}acetamide]
23 | 3370 | – | 65 | NS(=O)(=O)c1cc(NC(=O)Cc2ccc(C(F)(F)F)cc2)ccc1Oc1ccccc1Cl [Example 073, N-[4-(2-Chlorophenoxy)-3-sulfamoylphenyl]-2-[4-(trifluoromethyl)phenyl]acetamide]
24 | 3180 | – | 73 | Cc1nc(C2CC2)ncc1Oc1ccc(NC(=O)Cc2ccccc2Cl)cc1S(N)(=O)=O [Example 058, 2-(2-Chlorophenyl)-N-{4-[(2-cyclopropyl-4-methylpyrimidin-5-yl)oxy]-3-sulfamoylphenyl}acetamide]
25 | 1420 | – | 80 | NS(=O)(=O)c1cc(NC(=O)Cc2ccccc2Cl)ccc1Oc1cncnc1 [Example 019, 2-(2-Chlorophenyl)-N-[4-(pyrimidin-5-yloxy)-3-sulfamoylphenyl]acetamide]
26 | 1100 | – | 70 | COc1ccccc1Oc1ccc(NC(=O)Cc2ccccc2)cc1S(N)(=O)=O [Example 070, N-[4-(2-Methoxyphenoxy)-3-sulfamoylphenyl]-2-phenylacetamide]
27 | 841 | – | 75 | Cc1c(C#N)cccc1Oc1ccc(NC(=O)Cc2ccccc2Cl)cc1S(N)(=O)=O [Example 046, 2-(2-Chlorophenyl)-N-[4-(3-cyano-2-methylphenoxy)-3-sulfamoylphenyl]acetamide]
28 | 776 | – | 99 | NS(=O)(=O)c1cc(NC(=O)Cc2ccccc2Cl)ccc1Oc1cccc(N2CCN(C(=O)Cc3ccccc3Cl)CC2)c1 [Example 027, 2-(2-Chlorophenyl)-N-[4-(3-{4-[(2-chlorophenyl)acetyl]piperazin-1-yl}phenoxy)-3-sulfamoylphenyl]acetamide]
29 | 241 | – | 72 | NS(=O)(=O)c1cc(NC(=O)Cc2ccccc2Cl)ccc1Oc1cccc(C(=O)N2CCCCC2)c1 [Example 067, 2-(2-chlorophenyl)-N-{4-[3-(piperidin-1-ylcarbonyl)phenoxy]-3-sulfamoylphenyl}acetamide]
30 | 238 | – | 64 | NS(=O)(=O)c1cc(NC(=O)Cc2ccccc2Cl)ccc1Oc1cccc(Cl)n1 [Example 040, 2-(2-Chlorophenyl)-N-{4-[(6-chloropyridin-2-yl)oxy]-3-sulfamoylphenyl}acetamide]
31 | 172 | – | 57 | COc1ccc(C#N)cc1Oc1ccc(NC(=O)Cc2ccccc2Cl)cc1S(N)(=O)=O [Example 034, 2-(2-Chlorophenyl)-N-[4-(5-cyano-2-methoxyphenoxy)-3-sulfamoylphenyl]acetamide]
32 | 166 | – | 73 | COc1ccc(Oc2ccc(NC(=O)Cc3ccccc3Cl)cc2S(N)(=O)=O)cc1 [Example 023, 2-(2-Chlorophenyl)-N-[4-(4-methoxyphenoxy)-3-sulfamoylphenyl]acetamide]

From patent US20180338980A1, “AROMATIC SULFONAMIDE DERIVATIVES” (BAYER PHARMA AKTIENGESELLSCHAFT, priority 2015, published 2018)
